Test [1] concerns the target T1, OGA (Homo sapiens, UniProt O60502).
T1 construct: HEK293 cells inducible for P301L mutant human Tau (isoform 2N4R) were established at Janssen; endogenous in cells; host or cells: HEK293 cells inducible for P301L mutant human Tau (2N4R)
T1 sequence (O60502 1-916): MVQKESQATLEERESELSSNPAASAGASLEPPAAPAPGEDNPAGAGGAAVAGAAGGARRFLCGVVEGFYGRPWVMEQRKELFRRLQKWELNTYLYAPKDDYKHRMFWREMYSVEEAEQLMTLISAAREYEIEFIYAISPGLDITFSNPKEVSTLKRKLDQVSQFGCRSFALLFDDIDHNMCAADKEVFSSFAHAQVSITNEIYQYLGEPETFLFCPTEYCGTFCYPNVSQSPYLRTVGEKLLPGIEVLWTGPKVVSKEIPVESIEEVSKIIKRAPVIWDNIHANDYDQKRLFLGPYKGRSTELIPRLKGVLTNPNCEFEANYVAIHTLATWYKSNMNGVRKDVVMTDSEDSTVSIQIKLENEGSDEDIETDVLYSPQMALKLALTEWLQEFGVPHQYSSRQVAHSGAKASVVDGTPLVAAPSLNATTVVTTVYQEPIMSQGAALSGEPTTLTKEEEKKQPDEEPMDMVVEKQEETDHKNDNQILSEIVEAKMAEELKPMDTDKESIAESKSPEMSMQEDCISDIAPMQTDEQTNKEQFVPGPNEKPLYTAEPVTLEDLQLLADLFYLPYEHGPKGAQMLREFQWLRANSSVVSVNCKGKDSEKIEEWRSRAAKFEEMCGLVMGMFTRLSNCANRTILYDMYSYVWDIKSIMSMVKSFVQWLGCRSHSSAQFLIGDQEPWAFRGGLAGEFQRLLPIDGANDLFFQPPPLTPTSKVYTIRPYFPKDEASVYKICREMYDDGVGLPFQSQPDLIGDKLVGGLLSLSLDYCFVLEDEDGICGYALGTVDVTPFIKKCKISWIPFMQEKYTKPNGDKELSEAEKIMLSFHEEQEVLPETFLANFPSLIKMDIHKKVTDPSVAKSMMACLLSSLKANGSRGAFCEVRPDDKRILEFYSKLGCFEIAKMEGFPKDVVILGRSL
As to the kind of experiment: OGA cellular assay (ICC detection of O-GlcNAcylated proteins in HEK293 cells inducible for P301L mutant human Tau). The note with it: for Emax / Cellular Emax (%): maximum = Thiamet G 200 uM; for EC50: 6 hours incubation, read-out: Cellular hOGA, pEC50 (converted). Format: cell-based. Here is the method: HEK293 cells inducible for P301L mutant human Tau (isoform 2N4R) were established at Janssen. Thiamet-G was used for both plate validation (high control) and as reference compound (reference EC50 assay validation). OGA inhibition is evaluated through the immunocytochemical (ICC) detection of O-GlcNAcylated proteins by the use of a monoclonal antibody (CTD110.6; Cell Signaling, #9875) detecting 0-GlcNAcylated residues as previously described (Dorfmueller et al. 2010 Chemistry & biology, 17:1250). Inhibition of OGA will result in an increase of O-GlcNAcylated protein levels resulting in an increased signal in the experiment. Cell nuclei are stained with Hoechst to give a cell culture quality control and a rough estimate of immediate compounds toxicity, if any. ICC pictures are imaged with a Perkin Elmer Opera Phenix plate microscope and quantified with the provided software Perkin Elmer Harmony 4.1.
Cells were propagated in DMEM high Glucose (Sigma, #D5796) following standard procedures. 2 days before the cell assay cells are split, counted and seeded in Poly-D-Lysine (PDL) coated 96-wells (Greiner, #655946) plate at a cell density of 12,000 cells per cm^2 (4,000 cells per well) in 100 μl of Assay Medium (Low Glucose medium is used to reduce basal levels of GlcNAcylation) (Park et al. 2014 The Journal of biological chemistry 289:13519). At the day of compound test medium from assay plates was removed and replenished with 90 μl of fresh Assay Medium. 10 μl of compounds at a 10fold final concentration were added to the wells. Plates were centrifuged shortly before incubation in the cell incubator for 6 hours. DMSO concentration was set to 0.2%. Medium is discarded by applying vacuum. For staining of cells medium was removed and cells washed once with 100 μl D-PBS (Sigma, #D8537). From next step onwards unless other stated assay volume was always 50 μl and incubation was performed without agitation and at room temperature. Cells were fixed in 50 μl of a 4% paraformaldehyde (PFA, Alpha aesar, #043368) PBS solution for 15 minutes at room temperature. […] Before analysis samples were washed 2 times manually for 5 minutes in ICC base buffer.
Imaging is performed using Perkin Elmer Phenix Opera using a water 20× objective and recording 9 fields per well. Intensity readout at 488 nm is used as a measure of O-GlcNAcylation level of total proteins in wells. To assess potential toxicity of compounds nuclei were counted using the Hoechst staining. IC50-values are calculated using parametric non-linear regression model fitting. As a maximum inhibition Thiamet G at a 200 uM concentration is present on each plate. In addition, a concentration response of Thiamet G is calculated on each plate.

The target in test [2] is T2, recombinant human Meningioma Expressed Antigen 5 (MGEA5), also referred to as O-GlcNAcase (OGA) (Homo sapiens, UniProt O60502).
T2 construct: Full length OGA enzyme was purchased at OriGene (cat #TP322411); purchased OriGene TP322411
T2 sequence (O60502 1-916): T1 sequence (O60502 1-916)
As to the kind of experiment: OGA biochemical assay (inhibition of FM-GlcNAc hydrolysis, fluorescence). The note with it: FM-GlcNAc substrate; for IC50: read-out: Enzymatic hOGA, pIC50 (converted); for Emax / Enzymatic Emax (%): maximal effect; for Emax: read-out: Enzymatic Emax (%). The method, boiled down: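 Full-length OGA (2 nM) pre-incubated 60 min at room temperature with compound, then FM-GlcNAc (100 uM final) hydrolysed 6 h at room temperature in 200 mM citrate/phosphate pH 7.2 with 0.005% Tween-20. Stopped with carbonate pH 11.0; fluorescein read at ex 485/em 538 nm. IC50 and Hill coefficient from curve fit between no-inhibitor and saturating-standard controls.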

[3] abbreviates: HEK293, HEK293 cells inducible for P301L mutant human Tau.
[4] abbreviates: HEK293 cells inducible for P301L mutant human Tau.

As a reminder, the Emax is the maximal effect, on the per cent scale that the assay sets. For `Cc1cc(C[C@@H]2CCN(C(C)c3ccc4oc(C(C)C)nc4n3)C2)cc(C)n1` (mixture of isomers) [Compound 31], the results for the Emax in test [1] (setting [3]) and in test [2] were -7% and 30%, respectively. For the same compound, in test [1] (setting [4]), the EC50 was > 1000 nM. Moreover, the IC50 in test [2] (6 h at room temperature) was > 10000 nM.
Consider `Cc1cc(CO[C@H]2CCCN(C(C)c3cc4nc(C)sc4cc3F)C2)cc(C)n1` (mixture of isomers) [Compound 99], for which the figures for the Emax in test [1] (setting [3]) and in test [2] were 66% and 99%, respectively. The EC50 in test [1] (setting [4]) is 63.1 nM. In test [2] (6 h at room temperature), the IC50 was 3.16 nM.
As to `COc1cc(OC[C@H]2CCCN(C(C)c3ccc4sc(C)nc4n3)C2)cc(C)n1` (mixture of isomers) [Compound 54], the Emax in test [1] (setting [3]) is 67%; in test [2], 100%. Moreover, the EC50 in test [1] (setting [4]) was 158 nM. In addition, the IC50 in test [2] (6 h at room temperature) was 10 nM.
The like results for `COc1cc(C[C@@H]2CCN(C(C)c3ccc4sc(C)nc4n3)C2)cc(C)n1` (single isomer, unassigned) [Compound 97] were, in that order, -2%, 56%, > 1000 nM and 6310 nM.
The like results for `Cc1cc(C[C@H]2CCN(C(C)c3cnc4[nH]c(C)nc4c3)C2)cc(C)n1` (stereo partly drawn) [Compound 102] were, in that order, 32%, 96%, > 1000 nM and 398 nM.
For the compound `Cc1cc(CO[C@H]2CCCN(C(C)c3cc4nc(C)sc4cc3F)C2)cc(C)n1` (single isomer, unassigned) [Compound 100], in test [1] (setting [4]), the EC50 is > 1000 nM and the “Cellular Emax (%)” value is given as −6%. In addition, the IC50 in test [2] (6 h at room temperature) was 1260 nM. The Emax in test [2] was 92%.
Turning to `Cc1cc(OC[C@H]2CCCN(C(C)c3ccc4sc(C)nc4n3)C2)cc(C)n1` (mixture of isomers) [Compound 46ab], the Emax in test [1] (setting [3]) stood at 85%; in test [2], 101%. Also, the EC50 in test [1] (setting [4]) was 15.8 nM. Moreover, the IC50 in test [2] (6 h at room temperature) is 5.01 nM.
Turning to `Cc1cc(O[C@@H]2CCN(C(C)c3cc4nc(C)sc4cc3F)C2)cc(C)n1` (stereo partly drawn) [Compound 88], the results for the Emax in test [1] (setting [3]) and in test [2] were 66% and 99%, respectively. Further, in test [1] (setting [4]), the EC50 was 251 nM. Also, in test [2] (6 h at room temperature), the IC50 was 3.16 nM.
The like results for `Cc1cc(C[C@H]2CCCN([C@H](C)c3ccc4oc(C)nc4n3)C2)cc(OC(F)(F)F)n1` [Compound 25a] were, in that order, 85%, 101%, 50.1 nM and 3.98 nM.
As to `Cc1cc(C2CCCN(C(C)c3cc4nc(C)sc4cc3F)C2)cc(C)n1` (stereo not drawn) [Compound 90], in test [1] (setting [4]), the EC50 is 31.6 nM and the “Cellular Emax (%)” value is given as 84%. Moreover, the “Enzymatic hOGA; pIC50” value in test [2] (6 h at room temperature) amounted to 8.2. The “Enzymatic Emax (%)” value in test [2] turned out to be 101%.
In the case of `Cc1cc(CO[C@@H]2CCCN(C(C)c3ccc4sc(C)nc4n3)C2)cc(C)n1` (single isomer, unassigned) [Compound 69], the figures for the Emax in test [1] (setting [3]) and in test [2] were -6% and 96%, respectively. Moreover, the EC50 in test [1] (setting [4]) is > 1000 nM. In addition, the IC50 in test [2] (6 h at room temperature) is 501 nM.
The like results for `Cc1cc(C[C@H]2CCCN(C(C)c3ccc4nc(C)[nH]c4n3)C2)cc(C)n1` (mixture of isomers) [Compound 8] were, in that order, 23%, 99%, > 1000 nM and 100 nM.
The like results for `Cc1cc([C@H]2CCCN(C(C)c3nc4nc(C)[nH]c4cc3F)C2)cc(C)n1` (stereo partly drawn) [Compound 82] were, in that order, 39%, 97%, > 1000 nM and 126 nM.
The like results for `Cc1cc([C@H]2CCCN([C@H](C)c3ccc4sc(C)nc4n3)C2)nc(C)n1` (racemic) [Compound 70] were, in that order, 55%, 98%, 794 nM and 63.1 nM.
`Cc1cc(C[C@H]2CCCN(C(C)c3ccc4oc(C)nc4n3)C2)cc(OC(F)(F)F)n1` (mixture of isomers) [Compound 25ab]: the Emax in test [1] (setting [3]) turned out to be 86%; in test [2] it was 101%. In addition, the EC50 in test [1] (setting [4]) was 200 nM. The IC50 in test [2] (6 h at room temperature) was 15.8 nM.
The like results for `COc1cc(C[C@H]2CCCN([C@H](C)c3ccc4oc(C)nc4n3)C2)cc(C)n1` (relative stereo) [Compound 23a] were, in that order, 79%, 101%, 25.1 nM and 7.94 nM.
Regarding `Cc1cc(C[C@H]2CCCN(C(C)c3ccc4nc(C)sc4c3)C2)cc(C)n1` (mixture of isomers) [Compound 51], the EC50 in test [1] (setting [4]) was > 1000 nM. Also, the IC50 in test [2] (6 h at room temperature) is 501 nM. Moreover, the Emax in test [2] stood at 99%.
For `Cc1cc(CO[C@H]2CCCN(C(C)c3ccc4sc(C)nc4n3)C2)cc(C)n1` (stereo partly drawn) [Compound 66], the figures for the Emax in test [1] (setting [3]) and in test [2] were 55% and 100%, respectively. Also, the EC50 in test [1] (setting [4]) is 501 nM. Further, in test [2] (6 h at room temperature), the IC50 was 39.8 nM.
The like results for `Cc1cc(C[C@H]2CCCN(Cc3ccc4sc(C)nc4n3)C2)cc(C)n1` (mixture of isomers) [Compound 52] were, in that order, 70%, 103%, 501 nM and 63.1 nM.
Consider `Cc1cc(CO[C@H]2CCCN(C(C)c3cc4nc(C)sc4cc3F)C2)cc(C)n1` (single isomer, unassigned) [Compound 101], for which, in test [1] (setting [4]), the EC50 is 50.1 nM and the “Cellular Emax (%)” value stood at 73%. Moreover, the IC50 in test [2] (6 h at room temperature) is 3.98 nM. In addition, in test [2], the “Enzymatic Emax (%)” value is 98%.
As to `Cc1cc(C2CCCN(C(C)c3ccc4sc(C)nc4n3)C2)c(F)c(C)n1` (single isomer, unassigned) [Compound 77], in test [1] (setting [4]), the EC50 was > 1000 nM and the “Cellular Emax (%)” value was −10%. In addition, the IC50 in test [2] (6 h at room temperature) was 2510 nM. Further, in test [2], the Emax was determined as 75%.
For `Cc1cc(C[C@H]2CCCN(C(C)c3ccc4cn(C)nc4c3)C2)cc(C)n1` (mixture of isomers) [Compound 16], in test [1] (setting [4]), the EC50 is > 1000 nM and the Emax was 14%. Moreover, the IC50 in test [2] (6 h at room temperature) was 126 nM. Also, in test [2], the Emax amounted to 97%.

The record behind these values is patent US20210115040A1, “OGA INHIBITOR COMPOUNDS” (Janssen Pharmaceutica NV, priority 2018, published 2021).
